Earlier results in US20250057810A1, “AQUEOUS MELATONIN FORMULATION” (AGB-Pharma AB, priority 2021, published 2025).

Conditions: in vivo

blood levels returning to normal daytime levels after administration: 6 to 8 h
SMILES: COc1ccc2[nH]cc(CCNC(C)=O)c2c1 [melatonin, N-acetyl-5-methoxytryptamine]
